Experimental data taken from patent US9533019B1, “Calotropis procera extracts as anti-ulcerative colitis agents” (KING SAUD UNIVERSITY, priority 2016, dated 2017).
Marks after values point to notes of the source that are not given here.

Test system: acetic acid-induced colitis in male Wistar rats
Experiment: Acetic acid-induced ulcerative colitis
Type: in vivo
Protocol: Male Wistar rats were divided into 9 experimental groups, each of 6 animals. Rats of groups 1 and 2 received the vehicle (5 mL/kg) and served as normal control and control colitis groups, and Group 3 was administered dexamethasone (0.1 mg/kg) and served as Reference Drug group. […] All medications were administered orally, once daily for 5 consecutive days after colitis induction. The first doses were administrated in all groups one hour after colitis induction. The colonic lesions were assessed by weighing the colon specimens and the wet weight/length ratio was calculated for all the rats. The specimens were examined under a dissecting microscope and the lesion scores were quantified by scoring system (0-5). Ulcer area was measured using a plane glass square. Each cell on the glass square was 1 mm^2 in area, and the number of cells was counted and the ulcer area was determined for each colon.
The Ulcer index (UI) was measured by summing the lesion score and the ulcer area for each colon specimen. The curative ratio was determined according to formula (1) below: […]
The inflammatory changes of the intestinal tract were associated with a significant increase of wet weight/length of the colon specimens as an indicator of inflammation. […] The colitis was induced by slowly infusion of 2 mL (4%, v/v) acetic acid in saline into the colon through the catheter.

[1] = 50 mg/kg orally once daily for 5 days after colitis induction, n=6

## C[C@]12C=CC(=O)C=C1CC[C@@H]1[C@@H]2[C@@H](O)C[C@@]2(C)[C@H]1CC[C@]2(O)C(=O)CO [Prednisolone]
50 mg/kg orally for 5 days
  percent protection of control colitis: 54.9%
[1]
  Lesion score (0-5): 2.22 ± 0.12
  Ulcer area: 2.53 ± 0.15* cm^2
  Ulcer index: 4.65 ± 0.27
Colon wet weight/length, 50 mg/kg orally once daily for 5 days after colitis induction, n=6
  Wet W/L: 0.46 ± 0.02 g/cm
